Tested on: MHC II
Assay: MHC II (I-A^b) expression in DCs isolated from skin draining lymph nodes
Type: cell-based, mice (Mus musculus)
Procedure: CD11c+ cells were purified from lymph nodes that drain mice skin antigens C57Bl/6 WT or TLR2 KO, and 129Sv/Ev WT or IL-10 KO. The animals were sacrificed and the axial, brachial and inguinal lymph nodes were removed. These organs were macerated in a nylon screen with a mean that has D Collagenase (Roche). The cell suspension achieved was marked with the magnetic beads conjugated with an anti-CD11c antibody (N418) (Miltenyi Biotech) for 15 min. After being washed, the CD11c+ cells were purified by positive selecting using the MACS MS (Miltenyi Biotech) separation columns, according to the manufacturer instructions. The cells purity purified was controlled by flow cytometry, indicating a purity of 90% CD11c+ cells in the positive fraction. Therefore, the cells were grown in 96-well plates in serum free mean AIM-V® (Gibco).
The supernatants were collected and used for analyzing cytokine. The cells were further treated with 20 ng/ml of Rapamycin (Cell Signaling), 1 μg/ml of Cyclosporine A (Roche) or 20 ng/ml of IL-10 recombinant murine (R&D System) for 24 h and the total RNA was removed.
For analyzing the migration and activation of the DCs subtypes, the cells were marked for I-A^b (AF6-120.1), CD11c (HL3), CD11b (M1/70), CD45R/B220 (RA3-6B2), CD103 (M290), CCR7 (CD197-4B12), CD80 (16-10A1), CD86 (GL1) antibodies achieved from BD Biosciences; and Langerin (CD207—eBioRMUL.2) from eBioscience.
After this period, the expression of I-A^b in the DCs was analyzed by flow cytometry.
(A) Analysis strategy for DCs subtypes present in the mice recipients DNL. […] After this period, the expression of I-A^b was analyzed in the DCs CD103+. Graphs expressed on average ±SEM. **, p<0.01; ***, […]. n=3 mice per group. Representative results of 3 independent experiments.
After that, IL-10 mRNA levels were analyzed by Real-time PCR. The β-actin was used as a setter. The IL-10 concentration was measured in the cultures supernatant by flow cytometry. […] (C) As in A, however the MARCH-I mRNA levels were analyzed by Real-time PCR. […] DCs IL-10 KO were also treated with Recombinant IL-10. All treatments were performed for 24 h and MARCH-I mRNA levels were analyzed by Real-time PCR. […] After this period, grafts were sutured in the BALB/c animals' back and the acceptance was daily monitored. Graphs expressed on average ±SEM. *, p<0.05; **, p<0.01; ***, […]. n=3-5 mice per group. Representative results of 3 independent experiments.
The β-actin was used as setter. […] (C) Representative graphs and percentages of the CD11c+ I-Ab^hi, CD11c+I-Ab^int and CD11c+I-Ab^low cells of DCs isolated from LNs draining skin antigens of WT animals or TLR2 KO. […] After this period, the treated grafts were sutured in the BALB/c animals' back and the acceptance was daily monitored. […]

Hsp70: recombinant Mycobacterium tuberculosis Hsp70 (DnaK) produced in Escherichia coli BL21, LPS removed
MHC II expression in DCs isolated from skin draining lymph nodes (FIG. 3) (24 h, vs OVA): increase in the number of DCs expressing intermediate or low levels of MHC II | MHC II expression inhibition in DCs TLR2 KO (FIG. 12 C) (DCs isolated from LNs of WT or TLR2 KO): dependent on TLR2 | reduction of MHC II expression in IL-10 KO DCs (FIG. 11 B) (DCs of knockout animals for IL-10): not possible to note this phenomenon | MHC II expression in DCs CD103+ isolated from the lymph nodes (FIG. 9 C) (in vitro, 30 μg/ml, 24 h): reduce in vitro the MHC II expression
